Like-named read-outs stand apart in the source and are kept apart here.
Tests used:
[1] = test system: P. vulgaris; experiment: MIC by serial two-fold agar dilution (Mueller-Hinton agar), P. vulgaris; type: cell-based; conditions: Proteus vulgaris; P. vulgaris, Table 1; read-out: MIC
In short: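 Serial two-fold agar dilution on Mueller-Hinton agar, inoculated with a Steers' apparatus. Primary screening used 31 test organisms; secondary evaluation used 61 Pseudomonas aeruginosa strains. Relative activity values are mean % of MIC against sulbenicillin.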

[2] = test system: Pseudomonas aeruginosa; experiment: MIC by agar dilution against 61 strains of Pseudomonas aeruginosa, secondary evaluation; type: cell-based; conditions: for Mean % Relative Activity (SPBC = 100%): P. aerug. (61 strains); for MIC: Pseudomonas aeruginosa
In short: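 Steers' apparatus delivers inocula onto Mueller-Hinton agar containing serial two-fold dilutions; MIC is recorded per strain.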

For `NC(=O)OCC1=C(C(=O)O)N2C(=O)C(NC(=O)[C@H](NC(=O)c3cnc4cccnc4c3O)c3ccccc3)[C@H]2SC1` (stereo partly drawn) [BB-S520, Sodium 7-[D-α-(4-hydroxy-1,5-naphthyridine-3-carboxamido)-α-phenylacetamido]-3-carbamoyloxymethyl-3-cephem-4-carboxylate], the MIC [1] was 100 µg/mL, the “Rel. Act. (SBPC=100%)” value ([2]; 61 strains of Pseudomonas aeruginosa, Table 7) was 1016% and the “Mean % Relative Activity (SPBC = 100%)” value ([2]; lot 1, Table 5) was 714%. For the same compound, the “Mean % Relative Activity (SPBC = 100%)” value ([2]; lot 2, Table 5) was 1016%, the “Mean % Relative Activity (Sulbenicillin = 100%)” value ([2]; Ps. aeruginosa (61 strains), from geometric means of MICs in Table 2) was 714% and the MIC ([2]; 61 strains of Pseudomonas aeruginosa, Table 7, read-out: Geometric Mean of MIC) was 2.4 µg/mL. The MIC ([2]; BBRI Pa-No. 1, D15, Table 2, read-out: MIC) was 12.5 µg/mL, the MIC ([2]; BBRI Pa-No. 1, D15, Table 7, read-out: MIC) was 6.3 µg/mL and the MIC ([2]; BBRI Pa-No. 2, VA, Table 2, read-out: MIC) was 3.1 µg/mL. It also gave an MIC ([2]; BBRI Pa-No. 2, VA, Table 7, read-out: MIC) of 3.1 µg/mL, an MIC ([2]; BBRI Pa-No. 3, 1449VA, Table 2, read-out: MIC) of 1.6 µg/mL and an MIC ([2]; BBRI Pa-No. 3, 1449VA, Table 7, read-out: MIC) of 0.8 µg/mL. It also gave an MIC ([2]; BBRI Pa-No. 4, H9 D113, Table 2, read-out: MIC) of 12.5 µg/mL, an MIC ([2]; BBRI Pa-No. 4, H9 D113, Table 7, read-out: MIC) of 1.6 µg/mL and an MIC ([2]; BBRI Pa-No. 5, M4865KC, Table 2, read-out: MIC) of 3.1 µg/mL. For the same compound, the MIC ([2]; BBRI Pa-No. 5, N4865KC, Table 7, read-out: MIC) was 0.8 µg/mL, the MIC ([2]; BBRI Pa-No. 6, No. 5, Table 2, read-out: MIC) was 25 µg/mL and the MIC ([2]; BBRI Pa-No. 6, No. 5, Table 7, read-out: MIC) was 12.5 µg/mL. For the same compound, the MIC ([2]; BBRI Pa-No. 7, Table 2, read-out: MIC) was 6.3 µg/mL, the MIC ([2]; BBRI Pa-No. 7, Table 7, read-out: MIC) was 3.1 µg/mL and the MIC ([2]; BBRI Pa-No. 8, Table 2, read-out: MIC) was 3.1 µg/mL. It also gave an MIC ([2]; BBRI Pa-No. 8, Table 7, read-out: MIC) of 3.1 µg/mL, an MIC ([2]; BBRI Pa-No. 9, Yale, Table 2, read-out: MIC) of 3.1 µg/mL and an MIC ([2]; BBRI Pa-No. 9, Yale, Table 7, read-out: MIC) of 1.6 µg/mL. The MIC ([2]; BBRI Pa-No. 10, Table 2, read-out: MIC) was 50 µg/mL, the MIC ([2]; BBRI Pa-No. 10, Table 7, read-out: MIC) was 25 µg/mL and the MIC ([2]; BBRI Pa-No. 11, Table 2, read-out: MIC) was 3.1 µg/mL. It also gave an MIC ([2]; BBRI Pa-No. 11, Table 7, read-out: MIC) of 3.1 µg/mL, an MIC ([2]; BBRI Pa-No. 12, Table 2, read-out: MIC) of 6.3 µg/mL and an MIC ([2]; BBRI Pa-No. 12, Table 7, read-out: MIC) of 3.1 µg/mL. It also gave an MIC ([2]; BBRI Pa-No. 14, Table 2, read-out: MIC) of 3.1 µg/mL, an MIC ([2]; BBRI Pa-No. 14, Table 7, read-out: MIC) of 0.8 µg/mL and an MIC ([2]; BBRI Pa-No. 15, Table 2, read-out: MIC) of 12.5 µg/mL. It also gave an MIC ([2]; BBRI Pa-No. 15, Table 7, read-out: MIC) of 6.3 µg/mL, an MIC ([2]; BBRI Pa-No. 16, No. 130, Table 2, read-out: MIC) of 0.8 µg/mL and an MIC ([2]; BBRI Pa-No. 16, No. 130, Table 7, read-out: MIC) of 0.4 µg/mL. It also gave an MIC ([2]; BBRI Pa-No. 17, H6 D114, Table 2, read-out: MIC) of 6.3 µg/mL, an MIC ([2]; BBRI Pa-No. 17, H6 D114, Table 7, read-out: MIC) of 3.1 µg/mL and an MIC ([2]; BBRI Pa-No. 18, H8 D121, Table 2, read-out: MIC) of 6.3 µg/mL. It also gave an MIC ([2]; BBRI Pa-No. 18, H8 D121, Table 7, read-out: MIC) of 1.6 µg/mL, an MIC ([2]; BBRI Pa-No. 19, Table 2, read-out: MIC) of 1.6 µg/mL and an MIC ([2]; BBRI Pa-No. 19, Table 7, read-out: MIC) of 0.8 µg/mL. It also gave an MIC ([2]; BBRI Pa-No. 20, Table 2, read-out: MIC) of 3.1 µg/mL, an MIC ([2]; BBRI Pa-No. 20, Table 7, read-out: MIC) of 3.1 µg/mL and an MIC ([2]; BBRI Pa-No. 21, Table 2, read-out: MIC) of 3.1 µg/mL. It also gave an MIC ([2]; BBRI Pa-No. 21, Table 7, read-out: MIC) of 3.1 µg/mL, an MIC ([2]; BBRI Pa-No. 23, Table 2, read-out: MIC) of 6.3 µg/mL and an MIC ([2]; BBRI Pa-No. 23, Table 7, read-out: MIC) of 1.6 µg/mL. For the same compound, the MIC ([2]; BBRI Pa-No. 24, Table 2, read-out: MIC) was 50 µg/mL, the MIC ([2]; BBRI Pa-No. 24, Table 7, read-out: MIC) was 25 µg/mL and the MIC ([2]; BBRI Pa-No. 25, Table 2, read-out: MIC) was 1.6 µg/mL. For the same compound, the MIC ([2]; BBRI Pa-No. 25, Table 7, read-out: MIC) was 0.8 µg/mL, the MIC ([2]; BBRI Pa-No. 26, Ps32, Table 2, read-out: MIC) was 3.1 µg/mL and the MIC ([2]; BBRI Pa-No. 26, Ps32, Table 7, read-out: MIC) was 6.3 µg/mL. The MIC ([2]; BBRI Pa-No. 28, CPH1C527/72, Table 7, read-out: MIC) was 3.1 µg/mL, the MIC ([2]; BBRI Pa-No. 28, CPH10527/72, Table 2, read-out: MIC) was 6.3 µg/mL and the MIC ([2]; BBRI Pa-No. 29, D122, Table 2, read-out: MIC) was 1.6 µg/mL. It also gave an MIC ([2]; BBRI Pa-No. 29, D122, Table 7, read-out: MIC) of 1.6 µg/mL, an MIC ([2]; BBRI Pa-No. 30, Table 2, read-out: MIC) of 3.1 µg/mL and an MIC ([2]; BBRI Pa-No. 30, Table 7, read-out: MIC) of 1.6 µg/mL. For the same compound, the MIC ([2]; BBRI Pa-No. 31, Table 2, read-out: MIC) was 1.6 µg/mL, the MIC ([2]; BBRI Pa-No. 31, Table 7, read-out: MIC) was 0.8 µg/mL and the MIC ([2]; BBRI Pa-No. 32, Table 2, read-out: MIC) was 3.1 µg/mL. It also gave an MIC ([2]; BBRI Pa-No. 32, Table 7, read-out: MIC) of 1.6 µg/mL, an MIC ([2]; BBRI Pa-No. 33, Table 2, read-out: MIC) of 12.5 µg/mL and an MIC ([2]; BBRI Pa-No. 33, Table 7, read-out: MIC) of 1.6 µg/mL. It also gave an MIC ([2]; BBRI Pa-No. 34, Table 2, read-out: MIC) of 3.1 µg/mL, an MIC ([2]; BBRI Pa-No. 34, Table 7, read-out: MIC) of 1.6 µg/mL and an MIC ([2]; BBRI Pa-No. 35, Table 2, read-out: MIC) of 12.5 µg/mL. It also gave an MIC ([2]; BBRI Pa-No. 35, Table 7, read-out: MIC) of 6.3 µg/mL, an MIC ([2]; BBRI Pa-No. 36, Table 2, read-out: MIC) of 0.4 µg/mL and an MIC ([2]; BBRI Pa-No. 36, Table 7, read-out: MIC) of less than 0.2 µg/mL. For the same compound, the MIC ([2]; BBRI Pa-No. 37, Table 2, read-out: MIC) was 3.1 µg/mL, the MIC ([2]; BBRI Pa-No. 37, Table 7, read-out: MIC) was 3.1 µg/mL and the MIC ([2]; BBRI Pa-No. 38, Table 2, read-out: MIC) was 6.3 µg/mL. It also gave an MIC ([2]; BBRI Pa-No. 38, Table 7, read-out: MIC) of 6.3 µg/mL, an MIC ([2]; BBRI Pa-No. 39, Table 2, read-out: MIC) of 3.1 µg/mL and an MIC ([2]; BBRI Pa-No. 39, Table 7, read-out: MIC) of 1.6 µg/mL.
